For assay [1], the target named is T1, Full-length human Chk1 protein (Homo sapiens, UniProt O14757).
T1 construct: purchased Carna Biosciences, Inc. 02-117
T1 sequence (O14757 1-476): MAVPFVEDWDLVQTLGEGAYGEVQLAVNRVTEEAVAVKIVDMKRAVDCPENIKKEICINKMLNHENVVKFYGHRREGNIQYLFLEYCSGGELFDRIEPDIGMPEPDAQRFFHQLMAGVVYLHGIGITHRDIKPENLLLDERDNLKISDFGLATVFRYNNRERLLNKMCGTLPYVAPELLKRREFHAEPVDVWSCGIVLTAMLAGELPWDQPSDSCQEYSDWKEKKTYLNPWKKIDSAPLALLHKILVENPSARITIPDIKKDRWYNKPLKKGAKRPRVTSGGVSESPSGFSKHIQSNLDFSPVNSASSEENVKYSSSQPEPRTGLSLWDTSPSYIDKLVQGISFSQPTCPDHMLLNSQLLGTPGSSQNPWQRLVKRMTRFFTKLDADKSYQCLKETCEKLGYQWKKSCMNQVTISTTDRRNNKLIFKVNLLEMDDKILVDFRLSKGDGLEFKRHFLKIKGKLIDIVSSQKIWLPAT
The assay can be described thus: Kinase HTRF biochemical assay (HTRF KinEASE), Chk1 enzyme activity. The note with it: full-length human Chk1, ATP 1 mM, 60 minutes at room temperature. The procedure:
Example A: Kinase HTRF Biochemical Assay
Chk1 enzyme activity was measured using an HTRF KinEASE assay (Cisbio, catalog no. 62ST1PEC). Full-length human Chk1 protein (GenBank accession number NP_001265.1) was obtained from Carna Biosciences, Inc. (Kobe, Japan, catalog no. 02-117). The enzyme reaction was carried out in assay buffer containing (final concentrations): Chk1 enzyme (0.012 ng/μL), MgCl2 (5 mM) and DTT (1 mM). To determine compound dose response, DMSO stock solutions were serially diluted in a 10-point concentration series in duplicate. Compound solution (50 nL) was added to 384-well assay plates (Greiner, catalog no. 784075). To each well containing compound solution was added assay buffer solution (5 μL). Plates were centrifuged at 1000 rpm for 1 minute, then incubated at room temperature for 10 minutes. The reaction was started by addition of substrate buffer (5 μL/well) containing (final concentrations): STK substrate 1-biotin (120 nM) and ATP (1 mM). Assay plates were centrifuged at 1000 rpm for 1 minute, then incubated at room temperature for 60 minutes. The reaction was stopped by addition of detection buffer (Cisbio, 10 μL) containing (final concentrations): STK antibody-cryptate (0.25 nM) and streptavidin-XL665 (7.5 nM). Plates were centrifuged at 1000 rpm for 1 minute, then incubated at 25° C. for 2 hours. HTRF signal was read on an EnVision multimode plate reader […] in HTRF mode. Data were fit to dose-response curves using XLfit (IDBS, Surrey, UK) or Prism (GraphPad Software, La Jolla, Calif., US) to calculate IC50 values for each compound tested.
A general note: In TR-FRET formats the signal depends on donor and acceptor labels being close together.

The subject of assay [2] is p-CHK1 (Ser345). The assay can be described thus: AlphaLISA SureFire Ultra p-CHK1 (Ser345) cellular assay in HT29 cells. The class given is cell-based. The following applies: Homo sapiens, HT-29, 16 h at 37° C. The procedure:
Example B: AlphaLisa Cellular Assay
Compound activity in cells was measured using an AlphaLISA® SureFire® Ultra™ p-CHK1 (Ser345) assay (Perkin Elmer, catalog no. ALSU-PCHK1-A10K). HT29 cells were cultured in McCoy 5A medium with 10% FBS and 1% penicillin-streptomycin and seeded to 96-well plates (Corning, catalog no. 3599). Compounds were serially diluted in DMSO over a 10-point dose range with 3-fold dilution and to each well containing cells was added compound solution. Plates were centrifuged at 1000 rpm for 30 seconds. Plates were incubated at 37° C. for 16 h. Supernatant was removed by flicking the plate against a paper towel. Wells were washed once with PBS solution. To each well was added freshly prepared lysis buffer and plates were agitated on a plate shaker at 400 rpm for 30 min. The 96-well cell plates were centrifuged at 1500 rpm for 1 minute. From each well was transferred 10 μL of the lysates to a 384-well Optiplate™ (Perkin Elmer, catalog no. 6007290). To each well was added Acceptor Mix (5 μL) and the plates were sealed and wrapped in foil. Plates were agitated on a plate shaker for 2 minutes, then incubated at room temperature for 1 h. To each well was added Donor Mix (5 μL) and the plates were sealed and wrapped in foil. Plates were agitated on a plate shaker for 2 minutes, then incubated at room temperature for 1 h. AlphaLisa signal was read on an EnVision multimode plate reader (Perkin Elmer). Data were fit to dose-response curves using XLfit (IDBS, Surrey, UK) or Prism (GraphPad Software, La Jolla, Calif., US) to calculate IC50 values for each compound tested.
A general note: Bead proximity is the source of the signal in Alpha formats.

Where only a bound is given, the exact number is not on record here.

Our source for the IC50 values is patent US11707462B2, “Checkpoint kinase 1 (CHK1) inhibitors and uses thereof” (Boundless Bio, Inc., priority 2021, dated 2023).

For orientation: IC50 means the concentration that gives 50% inhibition.

Regarding `N#Cc1cnc(Nc2cc(-c3c(F)cccc3O[C@@H]3CCCC[C@H](N)C3)[nH]n2)cn1` [Example 3-35, 5-((5-(2-(((1R,3S)-3-aminocycloheptyl)oxy)-6-fluorophenyl)-1H-pyrazol-3-yl)amino)pyrazine-2-carbonitrile], the IC50 in assay [1] was no more than 0.01 µM; in assay [2], no more than 0.05 µM. In the case of `COc1cccc(O[C@@H]2CC[C@H](N)C2)c1-c1cc(Nc2cnc(C#N)c(C)n2)n[nH]1` [Example 1-39, 5-((5-(2-(((1R,3S)-3-aminocyclopentyl)oxy)-6-methoxyphenyl)-1H-pyrazol-3-yl)amino)-3-methylpyrazine-2-carbonitrile], the IC50 lay in the range of 0.01 to 0.1 µM in assay [1] and 0.5 to 1 µM in assay [2].

`COc1cccc(O[C@@H]2CC[C@@H](N(C)C)C2)c1-c1cc(Nc2cnc(C#N)cn2)n[nH]1` [Example 1-48, 5-((5-(2-(((1R,3R)-3-(dimethylamino)cyclopentyl)oxy)-6-methoxyphenyl)-1H-pyrazol-3-yl)amino)pyrazine-2-carbonitrile]: the 50% inhibitory concentration (IC50) in assay [1] was no more than 0.01 µM; in assay [2] it was 0.05 to 0.1 µM. For `COc1cccc(O[C@H]2C[C@@H](N)C2)c1-c1cc(Nc2cnc(C#N)cn2)n[nH]1` [Example 1-4, 5-((5-(2-((1s,3s)-3-aminocyclobutoxy)-6-methoxyphenyl)-1H-pyrazol-3-yl)amino)pyrazine-2-carbonitrile], in that order: 0.1 to 0.5 µM and greater than 1 µM.

As to `N#Cc1cnc(Nc2cc(-c3ccccc3O[C@H]3CC[C@@H](N)C3)[nH]n2)cn1` [Example 2-1, 5-((5-(2-(((1S,3R)-3-aminocyclopentyl)oxy)phenyl)-1H-pyrazol-3-yl)amino)pyrazine-2-carbonitrile], the IC50 in assay [1] is 0.5 to 1 µM; in assay [2] it was greater than 1 µM. Regarding `N#Cc1cnc(Nc2cc(-c3c(F)cccc3O[C@H]3C[C@H](N)C3)[nH]n2)cn1` [Example 1-13, 5-((5-(2-((1r,3r)-3-aminocyclobutoxy)-6-fluorophenyl)-1H-pyrazol-3-yl)amino)pyrazine-2-carbonitrile], the half-inhibitory concentration (IC50) in assay [1] lay within 0.01 to 0.1 µM; in assay [2] it was 0.1 to 0.5 µM. The corresponding values for `Cc1cccc(-c2cc(Nc3cnc(C#N)cn3)n[nH]2)c1O[C@@H]1CC[C@H](N)C1` [Example 3-12, 5-((5-(2-(((1R,3S)-3-aminocyclopentyl)oxy)-3-methylphenyl)-1H-pyrazol-3-yl)amino)pyrazine-2-carbonitrile] are greater than 1 µM and greater than 1 µM. The corresponding values for `N#Cc1cnc(Nc2cc(-c3ccccc3O[C@H]3CC[C@H](N)CC3)[nH]n2)cn1` [Example 1-51, 5-((5-(2-(((1r,4r)-4-aminocyclohexyl)oxy)phenyl)-1H-pyrazol-3-yl)amino)pyrazine-2-carbonitrile] are 0.01 to 0.1 µM and greater than 1 µM.

As to `Cc1nc(-c2cc(Nc3cnc(C#N)cn3)n[nH]2)c(O[C@@H]2CC[C@H](N)C2)cc1F` [Example 3-50, 5-((5-(3-(((1R,3S)-3-aminocyclopentyl)oxy)-5-fluoro-6-methylpyridin-2-yl)-1H-pyrazol-3-yl)amino)pyrazine-2-carbonitrile], the IC50 is 0.01 to 0.1 µM in assay [1] and 0.05 to 0.1 µM in assay [2].

As for `COc1cccc(O[C@@H]2CC[C@H](N(C)C)C2)c1-c1cc(Nc2cnc(C#N)cn2)n[nH]1` [Example 1-49, 5-((5-(2-(((1R,3S)-3-(dimethylamino)cyclopentyl)oxy)-6-methoxyphenyl)-1H-pyrazol-3-yl)amino)pyrazine-2-carbonitrile], the values for the half-inhibitory concentration (IC50) in assay [1] and in assay [2] were no more than 0.01 µM and no more than 0.05 µM, respectively. As for `Cc1ccc(O[C@H]2CC[C@H](N)C2)c(-c2cc(Nc3cnc(C#N)cn3)n[nH]2)n1` [Example 3-44, 5-((5-(3-(((1S,3S)-3-aminocyclopentyl)oxy)-6-methylpyridin-2-yl)-1H-pyrazol-3-yl)amino)pyrazine-2-carbonitrile], the half-maximal inhibitory concentration (IC50) fell in the range of 0.01 to 0.1 µM in assay [1] and 0.5 to 1 µM in assay [2]. In assay [1], `N#Cc1cnc(Nc2cc(-c3c(F)cccc3O[C@H]3CCCC[C@@H](N)C3)[nH]n2)cn1` [Example 3-36, 5-((5-(2-(((1S,3R)-3-aminocycloheptyl)oxy)-6-fluorophenyl)-1H-pyrazol-3-yl)amino)pyrazine-2-carbonitrile] displayed an IC50 of no more than 0.01 µM. The same measure, in the same setting: under `Cc1cc(-c2cc(Nc3cnc(C#N)cn3)n[nH]2)c(O[C@@H]2CC[C@H](N)C2)cc1F` [Example 3-17, 5-((5-(2-(((1R,3S)-3-aminocyclopentyl)oxy)-4-fluoro-5-methylphenyl)-1H-pyrazol-3-yl)amino)pyrazine-2-carbonitrile] stands 0.01 to 0.1 µM; under `Cc1nc(-c2cc(Nc3cnc(C(N)=O)cn3)n[nH]2)c(O[C@@H]2CC[C@H](N)C2)cc1F` [Example 3-51, 5-((5-(3-(((1R,3S)-3-aminocyclopentyl)oxy)-5-fluoro-6-methylpyridin-2-yl)-1H-pyrazol-3-yl)amino)pyrazine-2-carboxamide], greater than 1 µM; under `COc1cccc(O[C@@H]2CCC[C@H](N)C2)c1-c1cc(Nc2cnc(C#N)cn2)n[nH]1` (relative stereo) [Example 1-66], greater than 1 µM. The molecule `COc1cccc(O[C@@H]2CC[C@@H]2N)c1-c1cc(Nc2cnc(C#N)cn2)n[nH]1` [Example 3-4, 5-((5-(2-((1R,2S)-2-aminocyclobutoxy)-6-methoxyphenyl)-1H-pyrazol-3-yl)amino)pyrazine-2-carbonitrile] displayed an IC50 in assay [1] of 0.01 to 0.1 µM. Molecule `CC(C)Oc1cccc(O[C@@H]2CC[C@H](N)C2)c1-c1cc(Nc2cnc(C#N)cn2)n[nH]1` [Example 1-24, 5-((5-(2-(((1R,3S)-3-aminocyclopentyl)oxy)-6-isopropoxyphenyl)-1H-pyrazol-3-yl)amino)pyrazine-2-carbonitrile] yielded a half-inhibitory concentration (IC50) in assay [1] greater than 1 µM. Still for that read-out and setting: under `N#Cc1cnc(Nc2cc(-c3c(OC4CCC4)cccc3O[C@@H]3CC[C@H](N)C3)[nH]n2)cn1` [Example 1-36, 5-((5-(2-(((1R,3S)-3-aminocyclopentyl)oxy)-6-cyclobutoxyphenyl)-1H-pyrazol-3-yl)amino)pyrazine-2-carbonitrile] stands 0.1 to 0.5 µM. Same read-out and setting: under `COc1cccc(O[C@H]2CCCC[C@@H](N)C2)c1-c1cc(Nc2cnc(C#N)cn2)n[nH]1` [Example 3-9, 5-((5-(2-(((1S,3R)-3-aminocycloheptyl)oxy)-6-methoxyphenyl)-1H-pyrazol-3-yl)amino)pyrazine-2-carbonitrile] stands 0.01 to 0.1 µM; under `COc1cccc(O[C@H]2CCC[C@H](N)C2)c1-c1cc(Nc2cnc(C#N)cn2)n[nH]1` [Example 1-65, 5-[[5-[2-[(1S,3S)-3-aminocyclohexoxy]-6-methoxy-phenyl]-1H-pyrazol-3-yl]amino]pyrazine-2-carbonitrile], greater than 1 µM; under `COCc1cccc(O[C@@H]2CC[C@H](N)C2)c1-c1cc(Nc2cnc(C#N)cn2)n[nH]1` [Example 1-30, 5-((5-(2-(((1R,3S)-3-aminocyclopentyl)oxy)-6-(methoxymethyl)phenyl)-1H-pyrazol-3-yl)amino)pyrazine-2-carbonitrile], greater than 1 µM.
